Assay results: patent EP4725956A1, “MODIFIED POLYPEPTIDE AND USE THEREOF IN FIELD OF ANALGESIA” (Nanjing Anji Biotechnology Co., Ltd., priority 2023, dated 2024)
Positions of bridges follow the written chain, without caps; N, C: chain ends. Non-standard residues stand in square brackets, D forms with d. Residues, ends and D or L forms follow the SMILES beside them. Hyp = O=C(O)[C@@H]1C[C@@H](O)CN1; Nle = CCCC[C@H](N)C(=O)O; Orn = NCCC[C@H](N)C(=O)O

Experiments:
rat CCI model = experiment: Rat CCI (chronic constriction injury) model (Example 9); format: in vivo; conditions: 1 mg/kg s.c. (AJ003; AJ003-36 medium dose)
Text: Neuropathic pain has many types, and animal models can simulate clinical neuropathic pain. Common SD rat sciatic nerve neuropathic pain models include CCI (Chronic Constriction Injury), SNI (Spared Nerve Injury), SNL (Spinal Nerve Ligation), and CCD (using stainless steel wire through the intervertebral foramen to fix and compress the dorsal root ganglion). Among them, the CCI model is widely used to study neuropathic pain, providing a basis for further research on mechanisms and strategies for nerve injury repair (Wen Xiaojun, Medical Information, Jan. 2018, Vol. 31, No.1). In this example, the CCI model was employed.
Except for the control group, the remaining SD rats were anesthetized via intraperitoneal injection of 10% chloral hydrate saline solution at a dose of 0.3 mL per 100 g body weight, and surgical modeling was performed. The right hind limb skin was carefully incised, muscles were separated, and the sciatic nerve was ligated three times using 4-0 surgical silk, spaced 1 mm apart. Muscles and skin were sutured, and antibiotics were applied to the wound to prevent infection. […] Approximately 10 days post-surgery, plantar pain thresholds were measured three times for each rat, and the average value was calculated. Rats were randomly assigned to groups based on pain thresholds. Drug administration was performed according to Table 8, and plantar pain thresholds were measured at 2 h, 4 h, 6 h, and 8 h after administration.

[1] = tested on: mouse diabetic neuropathic pain model; experiment: Mouse diabetic neuropathic pain model (Example 10); format: in vivo; conditions: 2 mg/kg s.c. (AJ003; AJ003-36 medium dose)
Protocol: Except for the control group, the remaining male C57 mice (Hangzhou Ziyuan Experimental Animal Technology Co., Ltd.) were continuously fed a high-sugar, high-fat diet for approximately ten weeks. For the model group, mice were fasted overnight, and streptozotocin (STZ) (Sann Chemical Technology (Shanghai) Co., Ltd.) was dissolved in sodium citrate-citric acid buffer solution and intraperitoneally injected at a dose of 70 mg/kg. About two weeks after STZ injection, the mechanical pain threshold of mice was measured. Mice were placed on a perforated wire mesh for adaptation, and the plantar surface of the right hind paw was vertically stimulated with a blunt needle. Pain threshold data were collected using a biosignal acquisition system. Each mouse was measured three times, and the average value was calculated. Mice were then randomly assigned to groups based on their pain thresholds for drug administration.
Day 1 of dosing: Drug administration was performed according to Table 9. Mechanical pain thresholds of the plantar surface were measured at 0 h, 2 h, 4 h, 6 h, and 8 h after administration.

[2] = In vitro plasma stability and predicted half-life (HPLC main peak area, Example 3); format: in vitro ADME; conditions: human plasma (EDTA anticoagulant), 37°C, sampled up to 24 h, predicted half-life calculated with Winolin
Protocol: The modified peptides in this study were designed with non-natural amino acid substitutions at certain non-essential positions to enhance peptide stability and improve druggability. Peptides were dissolved in deionized water to 2 mg/mL, then diluted with acetonitrile to 1 mg/mL and filtered through an organic membrane. 200 µL of the filtrate was transferred to an LC vial as the peptide control. 300 µL of human plasma (comprising EDTA as anticoagulant, Nanjing Senbeijia Biotechnology Co., Ltd., Lot No. SBJ-P-HU011-100 mL) was mixed with 300 µL acetonitrile, centrifuged at 4°C and 12,000 rpm for 5 minutes. The supernatant was filtered through an organic membrane, and 200 µL of the filtrate was transferred to an LC vial as the plasma blank control. For peptide samples, 10 mg of peptide was weighed mixed with 5 mL of human plasma and vortexed thoroughly. 300 µL of peptide-containing plasma was mixed with 300 µL acetonitrile, centrifuged at 4°C and 12,000 rpm for 5 minutes, and the supernatant was filtered through an organic membrane. 200 µL of the filtrate was transferred to an LC vial as the 0 min sample. Peptide-containing plasma was incubated in a 37°C water bath, and samples at other time points were collected using the same procedure as the 0 min sample. For peptides AJ003 and AJ003-1, the sampling time points were 0 min, 5 min, 10 min, 20 min, 30 min, 1 h, 2 h, 4 h, 6 h, 10 h, 12 h, and 24 h. For modified peptides AJ003-34, AJ003-35, AJ003-36, AJ003-37, AJ003-38, AJ003-39, AJ003-40, AJ003-41, and AJ003-42, the time points were 0 min, 10 min, 30 min, 1 h, 4 h, 6 h, 10 h, 12 h, and 24 h. All peptide sample series were analyzed by HPLC, recording the changes in main peak areas over plasma incubation time. Predicted in vitro half-lives were calculated using the pharmacokinetic software Winolin. Due to the presence of tautomers, AJ003 peak areas were difficult to integrate accurately over time. AJ003-1 is an analog of AJ003 in which the threonine at position 5 is substituted with D-threonine; its sequence differs from AJ003 by only one amino acid configuration. […] The in vitro plasma half-lives of modified peptides AJ003-34, AJ003-35, AJ003-36, AJ003-37, AJ003-38, AJ003-39, AJ003-40, AJ003-41, and AJ003-42 were 61.9 h, 45.3 h, 65.3 h, 71.0 h, 26.7 h, 43.0 h, 84.0 h, 30.0 h, and 61.4 h, respectively.

Structure (SMILES): CC(C)C[C@H](NC(=O)[C@@H](NC(=O)[C@H]1CSSC[C@H](NC(=O)[C@H](CO)NC(=O)CN)C(=O)N[C@@H](CO)C(=O)N[C@@H]([C@@H](C)O)C(=O)N2CCC[C@H]2C(=O)N2CCC[C@H]2C(=O)N[C@@H](CO)C(=O)N1)C(C)C)C(=O)N[C@@H](Cc1ccc(O)cc1)C(=O)N[C@@H](CO)C(=O)O [AJ003, GSCSTPPS-(D-Cys)-VLYS (disulfide bond between positions 3 and 9)] (H-GSCSTPPS[dC]VLYS-OH; disulfide 3-9)
- analgesic activity compared with the model group (mechanical pain threshold) (rat CCI model; Day 1 of dosing, 2 h and 4 h): significant analgesic activity
- analgesic activity compared with the model group (mechanical pain threshold) (rat CCI model; Day 1 of dosing, 6 h): no significant difference
- analgesic activity compared with the model group (mechanical pain threshold) (rat CCI model; Day 1 of dosing, 8 h): not significantly different
- analgesic activity compared with the model group (mechanical pain threshold) (rat CCI model; Day 4 of dosing, 2 h and 4 h): significant analgesic activity
- analgesic activity compared with the model group (mechanical pain threshold) (rat CCI model; Day 4 of dosing, 6 h and 8 h): no longer significant
- analgesic activity compared with the model group (mechanical pain threshold) (rat CCI model; Day 7 of dosing, 2 h and 4 h): significant analgesic activity
- analgesic activity compared with the model group (mechanical pain threshold) (rat CCI model; Day 7 of dosing, 6 h): no significant effect
- analgesic activity compared with the model group (mechanical pain threshold) (rat CCI model; Day 7 of dosing, 8 h): not significant
- analgesic activity compared with the model group (mechanical pain threshold) (rat CCI model; Day 10 of dosing, 2 h and 4 h): significant analgesic activity
- analgesic activity compared with the model group (mechanical pain threshold) (rat CCI model; Day 10 of dosing, 6 h): no significant effect
- analgesic activity compared with the model group (mechanical pain threshold) (rat CCI model; Day 10 of dosing, 8 h): not significant
- analgesic activity compared with the model group (mechanical pain threshold) (rat CCI model; Day 14 of dosing, 2 h and 4 h): significant analgesic activity
- analgesic activity compared with the model group (mechanical pain threshold) (rat CCI model; Day 14 of dosing, 6 h): no significant effect
- analgesic activity compared with the model group (mechanical pain threshold) (rat CCI model; Day 14 of dosing, 8 h): not significant
- analgesic activity compared with the model group (mechanical pain threshold) ([1]; Day 1 of dosing, 2 h and 4 h): significant analgesic activity
- analgesic activity compared with the model group (mechanical pain threshold) ([1]; Day 1 of dosing, 6 h and 8 h): did not show significant differences
- analgesic activity compared with the model group (mechanical pain threshold) ([1]; Day 4 of dosing, 2 h and 4 h): significant analgesic activity
- analgesic activity compared with the model group (mechanical pain threshold) ([1]; Day 4 of dosing, 6 h and 8 h): no significant difference
- analgesic activity compared with the model group (mechanical pain threshold) ([1]; Day 8 of dosing, 2 h and 4 h): significant analgesic activity
- analgesic activity compared with the model group (mechanical pain threshold) ([1]; Day 8 of dosing, 6 h and 8 h): no significant difference
- analgesic activity compared with the model group (mechanical pain threshold) ([1]; Day 14 of dosing, 2 h and 4 h): significant analgesic activity
- analgesic activity compared with the model group (mechanical pain threshold) ([1]; Day 14 of dosing, 6 h and 8 h): did not show significant differences

Structure (SMILES): CCCC[C@H](NC(=O)[C@@H](NC(=O)[C@H]1CSSC[C@H](NC(=O)[C@H](CO)NC(=O)CN)C(=O)N[C@@H](CO)C(=O)N[C@H]([C@H](C)O)C(=O)N2C[C@H](O)C[C@H]2C(=O)N2C[C@H](O)C[C@H]2C(=O)N[C@@H](CO)C(=O)N1)C(C)C)C(=O)N[C@@H](Cc1c[nH]c2ccccc12)C(=O)N[C@@H](CCCN)C(N)=O [AJ003-40, GSCS-(D-Thr)-Hyp-Hyp-S-(D-Cys)-V-Nle-W-Orn-NH2 (3,9 disulfide bond)] (H-GSCS[dT][Hyp][Hyp]S[dC]V[Nle]W[Orn]-NH2; disulfide 3-9)
- half-life at 2 mg/mL [2]: 84 h
